# Tested on: human foreskin fibroblasts
# Test: Cytotoxicity: metabolic activity (WST-1) of quiescent fibroblasts exposed to inhibitor
# Assay type: cell-based
# Details: 25 μM compound, 0.5% DMSO, 48 hours, 60% or below = very sick or dead
# Description: C-proteinase inhibitors were studied in cytotoxicity assays wherein quiescent cells were exposed to C-proteinase inhibitors for a given time and cell viability measured. By examining cellular metabolic activity, cell viability and cell survival were determined.
# C-proteinase inhibitors were tested on human foreskin fibroblasts that had been grown to confluence in 96 well microtiter plates in Dulbecco's Modified Eagle Medium (DMEM) containing 10% fetal calf serum. Shortly before adding the inhibitors, the media was removed and 90 μl per microtiter well of fresh serum-free DMEM was added to the cells. The C-proteinase inhibitors were made up as concentrated stocks containing compound at 250 μM in the presence of 5% DMSO as solvent. A concentrated stock of 10 μl was added to each microtiter well to give a final compound concentration of 25 μM in the presence of 0.5% DMSO. The cells were incubated in the presence of the C-proteinase inhibitor for 48 hours, and then cell viability and survival were measured as a function of metabolic activity. To examine cellular metabolic activity, 10 μl of WST-1 reagent (Boehringer Mannheim) was added to each well of a 96 well microtiter plate containing quiescent cells that were already in media. The plate was incubated at 37° C. for 120 minutes and removed. The absorbance at 450 nm-650 nm was recorded. […] Controls included untreated healthy cells, and cells killed with 0.1% saponin.
# Cytotoxicity was evaluated as a function of cellular survival. Cellular survival was determined by measuring the metabolic activity of the quiescent cells after exposure to the C-proteinase inhibitors. To determine the metabolic activity of the cells, the color change of a trazolium dye over time was examined according to Mossmann, […], Immunol. Methods 65:66; Carmichael, 1987, Cancer Res 47:936, incorporated herein by reference. Healthy cells cleaved the dye producing a colored product that can be quantitated. […] Dead cells had no metabolic activity and no effect on the dye was shown.
# The amount of dye cleaved by cells that had been incubated with inhibitor, expressed as a percentage relative to untreated cells, is shown in TABLE 2. Cells that register at 60% or below are considered either very sick or dead. Control cells that were intentionally killed give a value of close to 20%.
row,SMILES,Percent Metabolic Activity of Fibroblasts Exposed To Various C-Proteinase Inhibitors Relative to Untreated Fibroblasts
1,COc1ccc(S(=O)(=O)N(CCC(=O)NO)CC2COc3ccccc3O2)cc1 (centres unmarked) [Compound 1374],117.6%
2,CC(=O)Nc1ccc(S(=O)(=O)N(CCC(=O)NO)CCc2cccs2)cc1 [Compound 1411],108.2%
3,O=C(CCN(Cc1ccc2c(c1)OCO2)S(=O)(=O)c1ccc(Br)s1)NO [Compound 1367],114.5%
4,CCCCOc1ccc(S(=O)(=O)N(CCC(=O)NO)CCc2cccs2)cc1 [Compound 1416],92.8%
5,O=C(CCN(Cc1ccc2c(c1)OCO2)S(=O)(=O)c1cccc2nsnc12)NO [Compound 1362],119.4%
6,O=C(CCN(Cc1ccc2c(c1)OCO2)S(=O)(=O)c1ccc(S(=O)(=O)c2ccccc2)s1)NO [Compound 1361],103.4%
7,CCCCOc1ccc(S(=O)(=O)N(CCC(=O)NO)Cc2ccc3c(c2)OCO3)cc1 [Compound 1372],109.2%
8,O=C(CCN(CCc1cccs1)S(=O)(=O)c1ccc(Br)s1)NO [Compound 1417],120.3%
9,CCCCCCCCS(=O)(=O)N(CCC(=O)NO)Cc1ccc2c(c1)OCO2 [Compound 1359],101.1%
10,CS(=O)(=O)c1ccc(S(=O)(=O)N(CCC(=O)NO)Cc2ccc3c(c2)OCO3)cc1 [Compound 1464],111.0%
11,O=C(CCN(CCc1cccs1)S(=O)(=O)Cc1ccccc1)NO [Compound 1414],112.6%
12,N/C(=N\O)c1ccc(S(=O)(=O)N(CCC(=O)NO)Cc2ccc3c(c2)OCO3)cc1 [Compound 1369],117.1%
13,O=C(CCN(Cc1ccc2c(c1)OCO2)S(=O)(=O)c1cccs1)NO [Compound 1371],114.4%
14,N/C(=N\O)c1cccc(S(=O)(=O)N(CCC(=O)NO)CCc2cccs2)c1 [Compound 1457],107.4%
15,COc1ccc(S(=O)(=O)N(CCC(=O)NO)Cc2ccc3c(c2)OCO3)cc1OC [Compound 1410],108.6%
16,COc1ccc(CCN(CCC(=O)NO)S(=O)(=O)c2cccc(/C(N)=N/O)c2)cc1 [Compound 1456],106.8%

# Molecular target: T1, recombinant human C-proteinase (Homo sapiens, UniProt P13497)
# T1 sequence (P13497 121-986): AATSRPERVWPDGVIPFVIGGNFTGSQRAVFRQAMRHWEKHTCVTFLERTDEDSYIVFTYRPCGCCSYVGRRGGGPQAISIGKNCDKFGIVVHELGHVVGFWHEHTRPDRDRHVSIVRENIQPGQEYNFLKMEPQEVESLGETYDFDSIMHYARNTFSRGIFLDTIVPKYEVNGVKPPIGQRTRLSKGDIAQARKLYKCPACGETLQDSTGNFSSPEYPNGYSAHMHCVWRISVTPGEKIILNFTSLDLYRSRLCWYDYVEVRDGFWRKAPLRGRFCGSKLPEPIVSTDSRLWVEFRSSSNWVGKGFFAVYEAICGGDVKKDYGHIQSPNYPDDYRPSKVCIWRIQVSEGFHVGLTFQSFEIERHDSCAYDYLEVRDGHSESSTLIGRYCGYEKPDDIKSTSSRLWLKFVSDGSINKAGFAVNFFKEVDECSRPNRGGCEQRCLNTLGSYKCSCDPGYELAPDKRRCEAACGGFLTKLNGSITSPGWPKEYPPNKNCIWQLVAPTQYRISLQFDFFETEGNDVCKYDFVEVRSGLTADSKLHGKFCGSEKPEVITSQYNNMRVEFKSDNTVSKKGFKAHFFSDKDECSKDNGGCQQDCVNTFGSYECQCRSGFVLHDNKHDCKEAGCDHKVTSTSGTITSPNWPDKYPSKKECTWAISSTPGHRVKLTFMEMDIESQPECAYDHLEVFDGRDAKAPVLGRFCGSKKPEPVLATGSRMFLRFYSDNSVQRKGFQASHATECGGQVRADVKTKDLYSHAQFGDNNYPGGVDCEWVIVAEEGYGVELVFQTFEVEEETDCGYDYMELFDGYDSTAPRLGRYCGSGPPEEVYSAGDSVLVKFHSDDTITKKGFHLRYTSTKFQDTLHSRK
# Test: C-proteinase IC50 assay with fluorogenic peptide
# Assay type: biochemical
# Details: not given
# Description: The reaction was started with the addition of 20 μl of the recombinant human C-proteinase mix. The reaction proceeded for 4 hours at 37° C. and the fluorescence was measured using a Bio-Tek Fl-600.
row,IC50,SMILES
1,8 µM,COc1ccc(S(=O)(=O)N(CCC(=O)NO)CCc2ccccn2)cc1 [compound 1132]

# Same assay, conditions: IC50 (μM) Of Various C-Proteinase Inhibitors
row,SMILES,IC50
1,COc1ccc(S(=O)(=O)N(CCc2ccccc2)CC(=O)NO)cc1 [compound 128],15.3 µM
2,COc1ccc(S(=O)(=O)N(CCC(=O)NO)Cc2ccccc2)cc1 [compound 121],9 µM
3,COc1ccc(CCN(CCC(=O)NO)S(=O)(=O)c2cccc(/C(N)=N/O)c2)cc1 [compound 1456],0.4 µM
4,COc1ccc(N(CCC(=O)NO)S(=O)(=O)c2ccc(OC)cc2)cc1 [compound 208],1.68 µM

# Now from value to compound:
row,IC50,SMILES
1,2 µM,COc1ccc(S(=O)(=O)N(CCC(=O)NO)c2ccccc2)cc1 [compound 124]
2,80.5 µM,COc1ccc(S(=O)(=O)N(CCC(=O)NO)CCN2CCOCC2)cc1 [compound 1131]

# Same assay, conditions: IC50 of Cpase
row,IC50,SMILES
1,1.68 µM,COc1ccc(N(CCC(=O)NO)S(=O)(=O)c2ccc(OC)cc2)cc1 [compound 208]

# Same assay, conditions: recombinant human C-proteinase, 50 μM fluorogenic peptide, 4 hours at 37° C.; read-out: IC50 (μM) Of Various C-Proteinase Inhibitors
row,SMILES,IC50
1,O=C(CCN(CCc1cccs1)S(=O)(=O)c1ccc(Br)s1)NO [compound 1417],1.67 µM
2,O=C(CCN(CCc1ccccc1)S(=O)(=O)c1ccc([N+](=O)[O-])cc1)NO [compound 1268],3.03 µM
3,CCCCOc1ccc(S(=O)(=O)N(CCC(=O)NO)Cc2ccc3c(c2)OCO3)cc1 [compound 1372],1.7 µM
4,N/C(=N\O)c1cccc(S(=O)(=O)N(CCC(=O)NO)Cc2ccc3c(c2)OCO3)c1 [compound 1458],0.25 µM
5,COc1ccc(S(=O)(=O)N(CCC(=O)NO)C2C3CC4CC(C3)CC2C4)cc1 (centres unmarked) [compound 1335],36.5 µM
6,O=C(CCN(CCc1cccs1)S(=O)(=O)c1cccs1)NO [compound 1425],1.32 µM
7,CS(=O)(=O)c1ccc(S(=O)(=O)N(CCC(=O)NO)Cc2ccc3c(c2)OCO3)cc1 [compound 1464],0.35 µM
8,O=C(CCN(CCc1cccs1)S(=O)(=O)Cc1ccccc1)NO [compound 1414],3.5 µM
9,COc1ccc(S(=O)(=O)N(CCC(=O)NO)Cc2ccc(Cl)cc2)cc1 [compound 1237],3.57 µM
10,CS(=O)(=O)c1ccc(S(=O)(=O)N(CCC(=O)NO)CCc2cccs2)cc1 [compound 1463],0.7 µM
11,CCCCOc1ccc(S(=O)(=O)N(CCC(=O)NO)CCc2cccs2)cc1 [compound 1416],0.82 µM

# Second part, the compound after the results:
row,IC50,SMILES
1,0.55 µM,CC(=O)Nc1ccc(S(=O)(=O)N(CCC(=O)NO)Cc2ccc3c(c2)OCO3)cc1 [compound 1357]
2,0.84 µM,N/C(=N\O)c1cccc(S(=O)(=O)N(CCC(=O)NO)CCc2cccs2)c1 [compound 1457]
3,0.32 µM,COc1ccc(CCN(CCC(=O)NO)S(=O)(=O)c2cccc(N)c2)cc1 [compound 1492]
4,2.43 µM,COc1ccc(S(=O)(=O)N(CCC(=O)NO)CCc2ccc(Cl)cc2)cc1 [compound 1300]
5,1.77 µM,COc1ccc(S(=O)(=O)N(CCC(=O)NO)Cc2ccc3c(c2)OCO3)cc1OC [compound 1410]
6,0.63 µM,COc1ccc(S(=O)(=O)N(CCC(=O)NO)Cc2ccc3c(c2)OCO3)cc1 [compound 1273]
7,0.39 µM,CC(=O)Nc1ccc(S(=O)(=O)N(CCC(=O)NO)CCc2cccs2)cc1 [compound 1411]
8,0.18 µM,N/C(=N\O)c1ccc(S(=O)(=O)N(CCC(=O)NO)CCc2cccs2)cc1 [compound 1409]
9,0.25 µM,COc1ccc(CCN(CCC(=O)NO)S(=O)(=O)c2ccc(-c3nnn[nH]3)cc2)cc1 [compound 1496]
10,1.51 µM,O=C(CCN(Cc1ccc2c(c1)OCO2)S(=O)(=O)c1cccc2nsnc12)NO [compound 1362]
11,1.47 µM,O=C(CCN(Cc1ccc2c(c1)OCO2)S(=O)(=O)c1ccc(Br)s1)NO [compound 1367]
12,0.88 µM,O=C(CCN(Cc1ccc2c(c1)OCO2)S(=O)(=O)c1ccc(S(=O)(=O)c2ccccc2)s1)NO [compound 1361]
13,3.95 µM,O=C(CCN(CCc1cccs1)S(=O)(=O)c1ccc(S(=O)(=O)c2ccccc2)s1)NO [compound 1419]
14,1.46 µM,COc1ccccc1CCN(CCC(=O)NO)S(=O)(=O)c1ccc(C(=O)O)cc1 [compound 1405]
15,22.1 µM,COc1ccc(CCN(CC(=O)NO)S(=O)(=O)c2ccc(OC)cc2)cc1 [compound 204]
16,1.21 µM,O=C(CCN(CCc1ccccc1)S(=O)(=O)c1cccs1)NO [compound 1270]
17,0.23 µM,N/C(=N\O)c1ccc(S(=O)(=O)N(CCC(=O)NO)Cc2ccc3c(c2)OCO3)cc1 [compound 1369]
18,0.91 µM,O=C(CCN(Cc1ccc2c(c1)OCO2)S(=O)(=O)c1cccs1)NO [compound 1371]

# Source: patent US6506936B1, “N-substituted arylsulfonylamino hydroxamic acids useful as inhibitors of c-proteinase and for treating or preventing disorders related to unregulated collagen production” (FibroGen, Inc., priority 1999, dated 2003)
